Assay results as given in article PMC3353973 (PLoS ONE, 2012).
Numbered stars: 1 amine (or outer) side, 2 acyl side, 3 side chain; on linkers, the order of the positions; unused ones are H or OH. Bridge positions count the residues as written; N and C are the ends. I, II: the chains in the order shown. X1 = CC(C)CCC[C@@H](C)[C@H]1CC[C@H]2[C@@H]3CC=C4C[C@@H](OCCN(CCNC(=O)CCOCCOCCOCCOCCNC(=O)CCCN5C(=O)CC([*:1])C5=O)CCNC(=O)CCOCCOCCOCCOCCNC(=O)CCCN5C(=O)CC([*:2])C5=O)CC[C@]4(C)[C@H]3CC[C@]12C

Details: hamster, in vivo

I: Ac-VALDPIDISIVLNKAKSDLEESKEWIRRSNGKLDSIGSGSGC-NH2 / II: Ac-VALDPIDISIVLNKAKSDLEESKEWIRRSNGKLDSIGSGSGC-NH2 (linker I:42-II:42 via X1) [HPIV-P4]
Apparent toxicity in mock-infected animals: did not result in any apparent toxicity
